The target of data set [1] is sGC (Homo sapiens (Human), UniProt Q02153). Kind of data set: cGMP expression test based on LNCap cells (sGC stimulatory activity). The note with it: ODQ present; for MEC: Minimum effective concentration required to stimulate cGMP production in LNCap cells (greater than three times the baseline value); for EC50: cGMP production in LNCap cells. Type of data set: cell-based. The procedure: I. cGMP Expression Test Based on InCap Cells
(1) The compound was diluted to a concentration of 10 mM using DMSO.
(2) A serial dilution of the compound was performed, resulting in 10 different concentration levels of each compound. 100 nL of each diluted compound was added to a 96-well plate.
3) Preparation of LNCap Cells
(1) LNCap culture medium: RPMI1640 supplemented with 10% fetal bovine serum (FBS) and 1% double antibody
(9) Assay buffer was added, and the cell concentration was adjusted to 3×10^6/mL.
4) Preparation and Addition of ODQ Solution
(1) 10 mM ODQ stock solution was diluted at a ratio of 1:1000 and added to the cell solution.
(2) After thorough mixing, the solution was added to a microplate at 10 μL per well.
5) Preparation of cGMP Standard Curve
(1) 1 mM cGMP stock solution was diluted to 10 μM using assay buffer. 11 concentration gradients were created through 4-fold serial dilutions.
(2) The diluted cGMP was added to the microplate at 10 μL per well.
6) Addition of Assay Reagents and Plate Reading
(1) cGMP-D2 was transferred to a 384-well plate at 5 μL per well. Anti-cGMP cryptate was transferred to a […] at 5 μL per well. Centrifugation was performed at 1500 rpm for 1 minute.
(2) Incubation was carried out at room temperature for 1 hour.
(3) The plates were read using envision at 665/615 wavelengths.
(1) cGMP standard curve: A standard curve was generated using GraphPad Prism, based on the ratio of cGMP concentration to the 665/615 wavelength values.
(2) Conversion of HTRF (homogeneous time-resolved fluorescence) ratio (665/615) to cGMP concentration: In GraphPad Prism, the HTRF ratio (665/615) was copied to the ratio column of the cGMP standard curve. The analysis “Log inhibitor vs response-variable slope” was run, and the “interpolate” option was selected to convert the HTRF ratio (665/615) into cGMP concentration.
(3) Compound activation curve: A curve was generated using the “Log agonist vs response-variable slope” analysis method in GraphPad Prism, based on the converted cGMP concentration and compound concentration.

Data set [2] concerns hepatocytes. Kind of data set: In vitro hepatocyte metabolic stability, mouse. It counts as in vitro ADME. The note with it: test compound 1 μM, 0.5×10^6 cells/mL. The procedure: (§1) 1. Experimental Objective: The Aim of the Study was to Assess the Stability of the Compounds in Hepatocytes of Different Species.
(§2) A variety of 96-well precipitation plates were prepared and labeled as T0, T15, T30, T60, T90, T0-MC, T90-MC, and blank matrix, respectively. Revival medium and incubation medium were taken in advance and pre-warmed in a 37° C. water bath. Hepatocytes of different species, stored in a liquid nitrogen tank, were taken and immediately immersed in a 37° C. water bath for approximately 90 seconds. Once partially thawed, cells were transferred to centrifuge tubes containing 40 mL of revival medium, and gently inverted to resuspend the cells in the revival medium. At room temperature, cells were centrifuged at 100×g for 5 minutes. The supernatant was discarded, and the hepatocytes were resuspended in an appropriate volume of incubation medium. Viability was calculated using trypan blue staining. 198 μL of hepatocyte suspension (0.51×10^6 cells/mL) was added to pre-warmed incubation plates. For the control group, 198 μL of hepatocyte-free incubation medium was added to T0-MC and […] plates. All plates were pre-incubated for 10 minutes in a 37° C. incubator. […] All samples were mixed well and analyzed using LC/MS/MS methods.

Data set [3] relates to hepatocytes. Kind of data set: In vitro hepatocyte metabolic stability, human. It counts as in vitro ADME. The note with it: test compound 1 μM, 0.5×10^6 cells/mL. The procedure:
as §1, §2

The nature of data set [4]: In vivo pharmacokinetic property study in male Sprague Dawley rats. The procedure:
Experimental objective: The aim of this study was to determine the pharmacokinetic parameters of the compound in male Sprague Dawley rats.
Sprague Dawley rats (male, 200 to 300 g, 7 to 9 weeks old, procured from Shanghai SLAC)
For this project, four male Sprague Dawley rats were used. Two rats in one group were administered the compound intravenously at a dosage of 2 mg/kg and a concentration of 0.4 mg/mL. Two rats in another group were administered the compound orally at a dosage of 10 mg/kg and a concentration of 1 mg/mL. Plasma samples were collected 0.083 (intravenous group only), 0.25, 0.5, 1, 2, 4, 6, 8, and 24 hours after administration. The collected samples were then analyzed using LC-MS/MS and data were collected. The collected analytical data were processed using Phoenix WinNonlin 6.3 software to calculate relevant pharmacokinetic parameters.

For data set [5], the system named is hepatocytes. Kind of data set: In vitro hepatocyte metabolic stability, rat. It counts as in vitro ADME. The note with it: test compound 1 μM, 0.5×10^6 cells/mL. The procedure: as §1, §2

Ten compounds from patent publication US20240317696A1, “ALKYL CARBOXYLIC ACID COMPOUNDS AND APPLICATION THEREOF” (MEDSHINE DISCOVERY INC., priority 2021, published 2024) can be followed below.

Usually EC50 stands for the concentration at which the effect is half-maximal. A low value points to higher potency in that assay. As usually defined, the AUC is the area under the concentration-time curve, a measure of exposure. A lower AUC goes with less exposure. As a reminder, the Vdss is a proportionality between amount in the body and measured concentration, not a real space. A lower Vdss goes with confinement near the circulation.

Chain of sGC (Q02153 whole entry): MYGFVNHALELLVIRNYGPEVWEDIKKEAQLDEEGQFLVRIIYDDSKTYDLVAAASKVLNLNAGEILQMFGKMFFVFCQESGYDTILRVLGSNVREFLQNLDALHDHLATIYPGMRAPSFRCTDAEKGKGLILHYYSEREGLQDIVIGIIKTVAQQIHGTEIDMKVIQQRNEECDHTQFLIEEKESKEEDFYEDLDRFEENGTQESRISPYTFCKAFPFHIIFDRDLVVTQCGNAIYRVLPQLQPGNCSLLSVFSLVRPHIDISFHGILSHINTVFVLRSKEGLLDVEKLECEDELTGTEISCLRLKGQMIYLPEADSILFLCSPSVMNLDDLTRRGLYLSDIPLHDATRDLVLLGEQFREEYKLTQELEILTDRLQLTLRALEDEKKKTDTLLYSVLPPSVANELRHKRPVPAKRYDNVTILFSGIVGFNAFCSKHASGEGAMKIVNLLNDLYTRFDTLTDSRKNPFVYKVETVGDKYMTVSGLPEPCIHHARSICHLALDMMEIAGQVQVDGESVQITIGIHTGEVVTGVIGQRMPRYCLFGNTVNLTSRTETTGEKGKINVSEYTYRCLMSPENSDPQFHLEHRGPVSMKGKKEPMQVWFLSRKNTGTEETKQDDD
Chain of sGC (Q02108 whole entry partner): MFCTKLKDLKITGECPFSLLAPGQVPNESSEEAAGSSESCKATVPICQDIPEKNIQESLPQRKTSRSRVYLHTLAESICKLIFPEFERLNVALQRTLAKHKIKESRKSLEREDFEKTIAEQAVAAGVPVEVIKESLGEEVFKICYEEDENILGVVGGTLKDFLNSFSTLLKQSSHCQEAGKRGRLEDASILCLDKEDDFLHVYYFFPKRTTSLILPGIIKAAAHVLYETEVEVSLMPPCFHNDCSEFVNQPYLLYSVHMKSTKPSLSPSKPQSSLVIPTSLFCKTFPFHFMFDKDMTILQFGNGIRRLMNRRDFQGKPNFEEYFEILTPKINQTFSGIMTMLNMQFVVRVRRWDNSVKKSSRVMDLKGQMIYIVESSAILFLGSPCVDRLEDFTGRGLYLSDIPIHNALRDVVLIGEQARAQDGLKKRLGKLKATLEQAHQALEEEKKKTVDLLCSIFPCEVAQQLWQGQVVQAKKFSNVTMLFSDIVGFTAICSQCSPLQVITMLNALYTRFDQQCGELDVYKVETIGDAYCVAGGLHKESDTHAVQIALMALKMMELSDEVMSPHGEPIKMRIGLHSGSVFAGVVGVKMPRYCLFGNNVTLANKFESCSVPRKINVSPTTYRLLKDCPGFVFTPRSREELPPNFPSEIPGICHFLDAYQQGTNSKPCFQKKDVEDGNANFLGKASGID

Regarding `C[C@H]([C@H](C(=O)Nc1cc([C@@H](CC(=O)O)[C@H]2CCCO2)ccc1Cl)c1ccc(Cl)cc1)C(F)(F)F` [WX016], in data set [1], the MEC is 27.85 nM and the 50% effective concentration (EC50) worked out at 145 nM.
In the case of `C[C@H]([C@H](C(=O)Nc1cc([C@@H](CC(=O)O)C23CC(F)(C2)C3)ccc1Cl)c1ccc(Cl)cc1)C(F)(F)F` [WX005], in data set [2], the “CLint (liver)” value amounted to 610.4 mL/min/kg and the T1/2 was 0.45 h. In data set [3], the “CLint (liver)” value was determined as 49.7 mL/min/kg and the T1/2 was determined as 1.29 h. In data set [4] (iv 2 mg/kg), the AUC is 11.228 µM·h, the Cl amounted to 5.47 mL/min/kg, the T1/2 worked out at 3.83 h and the Vdss was found to be 1.27 L/kg. In data set [4] (po 10 mg/kg), this compound had an exposure (AUC) of 17.423 µM·h and a T1/2 of 6.92 h. The “% F” value in data set [4] (po 10 mg/kg vs iv 2 mg/kg) is 42.1%. Further, in data set [5], the “CLint (liver)” value is reported as 154.7 mL/min/kg and the T1/2 is 0.698 h. In data set [1], this compound had an MEC of 0.27 nM and an EC50 of 2.06 nM.
Take `COC12CC(C(CC(=O)O)c3ccc(Cl)c(NC(=O)[C@H](c4ccc(Cl)cc4)[C@@H](C)C(F)(F)F)c3)(C1)C2` (stereo partly drawn) [WX013]: in data set [1], the MEC was 1.22 nM and the EC50 was 3.5 nM.
With `C[C@H]([C@H](C(=O)Nc1cc(C(CC(=O)O)C23CC(F)(C2)C3)ccc1Cl)c1ccc(Cl)cc1)C(F)(F)F` (stereo partly drawn) [WX004], in data set [1], the MEC is recorded as 0.61 nM and it took 3.74 nM to reach a half-maximal effect (EC50).
In data set [1], `Cc1ccc(C(CC(=O)O)C23CC(F)(C2)C3)cc1NC(=O)C(c1ccc(Cl)cc1)[C@@H](C)C(F)(F)F` (stereo partly drawn) [WX010] yielded an MEC of 1.76 nM and an EC50 of 2.16 nM.
The corresponding values for `COC12CC([C@H](CC(=O)O)c3ccc(Cl)c(NC(=O)[C@H](c4ccc(Cl)cc4)[C@@H](C)C(F)(F)F)c3)(C1)C2` [WX014] are 0.42 nM and 1.65 nM.
In data set [1], `C[C@H]([C@H](C(=O)Nc1cc([C@@H](CC(=O)O)C2CCCC2)ccc1Cl)c1ccc(Cl)cc1)C(F)(F)F` [WX002] registered an MEC of 2.20 nM and an EC50 of 1.76 nM.
As to `C[C@H]([C@H](C(=O)Nc1cc(C(CC(=O)O)C23CC(F)(C2)C3)ccc1F)c1ccc(Cl)cc1)C(F)(F)F` (stereo partly drawn) [WX007], in data set [1], the MEC is reported as 0.65 nM and the midpoint of the response, the EC50, lay at 3.28 nM.
Taken in the same sequence, the figures for `C[C@H]([C@H](C(=O)Nc1cc(C(CC(=O)O)C2CCCC2)ccc1Cl)c1ccc(Cl)cc1)C(F)(F)F` (stereo partly drawn) [WX001] were 4.20 nM and 6.62 nM.
In data set [1], `Cc1ccc([C@@H](CC(=O)O)C23CC(F)(C2)C3)cc1NC(=O)[C@H](c1ccc(Cl)cc1)[C@@H](C)C(F)(F)F` [WX011] yielded an MEC of 1.39 nM and a 50% effective concentration (EC50) of 1.75 nM.
